Patent publication US20140288182A1, “USE OF CARBAMIDE PEROXIDE INJECTION IN PREPARATION OF VIRUS INACTIVATION MEDICAMENTS FOR TREATING DISEASES” (Wuxi Zhaozhen Radiation Technology Co., Ltd., priority 2013, published 2014)

Tested on: thoracic aorta blood vessel plaque
Test: New-Zealand rabbit model of blood vessel plaque (CTA angiography and MR)
Assay type: in vivo
Protocol: The New-Zealand rabbit model of blood vessel plaque is a common animal experimental model. […] The blood vessel plaque was taken as the target region and positioned, and a radiotherapy plan was made. 1.5 h after intraperitoneal injection of 5-ALA (80 mg/kg body weight), the substrate was intravenously dripped, and the irradiation to the blood vessel plaque was performed once with 5 Gy. The New-Zealand rabbit was continually fed for 1 week.

Compound: NCC(=O)CCC(=O)O [5-ALA]
- regression of thoracic aorta blood vessel plaque (CTA angiography and MR detection) (5-ALA 80 mg/kg intraperitoneal 1.5 h before, substrate intravenously dripped, plaque irradiated once with 5 Gy, examined on the seventh day after treatment): completely disappeared
- plaque in the blood vessel of a rabbit by CT examination (FIG. 3) (photosensitizer given orally, irradiated with high energy X-ray, CT examination 5 days later): eliminated
